Experimental data as given in patent publication US20110034454A1, “MORPHOLINO PYRIMIDINE DERIVATIVES AND THEIR USE IN THERAPY” (priority 2006, published 2011).
“And” between values parts separate entries of the source, which are not always exact repeats. Equal values may be shown once. Read-outs that look alike come from different tables or passages of the source.

Key:
p110α Type Ia human PI3K = target: T1, p110α Type Ia human PI3K (Homo sapiens, UniProt P42336); test: In vitro PI3K enzyme assay (AlphaScreen), p110α; format: biochemical; details: Test (b)
T1 construct: full length DNA of each of the p110α, p110β and p110δ Type Ia human PI3K p110 isoforms; 6-His; made in house
T1 sequence (P42336 whole entry, canonical isoform): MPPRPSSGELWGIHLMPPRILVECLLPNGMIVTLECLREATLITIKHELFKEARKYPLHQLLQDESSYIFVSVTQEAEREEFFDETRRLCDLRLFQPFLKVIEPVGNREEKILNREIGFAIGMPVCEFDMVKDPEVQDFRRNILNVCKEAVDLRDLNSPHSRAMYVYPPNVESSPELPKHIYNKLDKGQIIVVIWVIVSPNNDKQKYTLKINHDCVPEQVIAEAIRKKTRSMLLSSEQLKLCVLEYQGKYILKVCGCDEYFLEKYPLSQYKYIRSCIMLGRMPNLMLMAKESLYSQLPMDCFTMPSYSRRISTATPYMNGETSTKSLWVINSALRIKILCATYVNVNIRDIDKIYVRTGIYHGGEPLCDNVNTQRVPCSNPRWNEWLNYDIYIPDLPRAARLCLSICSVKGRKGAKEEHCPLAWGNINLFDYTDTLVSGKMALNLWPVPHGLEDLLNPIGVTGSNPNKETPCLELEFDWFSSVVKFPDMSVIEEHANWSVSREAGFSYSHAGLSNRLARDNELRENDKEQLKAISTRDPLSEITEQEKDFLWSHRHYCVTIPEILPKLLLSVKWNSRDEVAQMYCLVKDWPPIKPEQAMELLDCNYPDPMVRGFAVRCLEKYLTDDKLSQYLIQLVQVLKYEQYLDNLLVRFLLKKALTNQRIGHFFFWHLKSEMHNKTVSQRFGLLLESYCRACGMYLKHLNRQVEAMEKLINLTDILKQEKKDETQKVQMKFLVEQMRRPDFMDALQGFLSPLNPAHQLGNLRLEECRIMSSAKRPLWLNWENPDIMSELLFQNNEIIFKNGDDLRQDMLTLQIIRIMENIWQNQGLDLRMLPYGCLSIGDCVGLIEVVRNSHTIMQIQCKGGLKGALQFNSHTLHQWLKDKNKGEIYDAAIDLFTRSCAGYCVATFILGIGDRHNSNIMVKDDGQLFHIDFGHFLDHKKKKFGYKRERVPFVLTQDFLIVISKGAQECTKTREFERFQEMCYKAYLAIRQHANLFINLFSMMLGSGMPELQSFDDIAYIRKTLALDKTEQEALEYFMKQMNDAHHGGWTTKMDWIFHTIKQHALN
T1 sequence (P27986 whole entry partner, canonical isoform): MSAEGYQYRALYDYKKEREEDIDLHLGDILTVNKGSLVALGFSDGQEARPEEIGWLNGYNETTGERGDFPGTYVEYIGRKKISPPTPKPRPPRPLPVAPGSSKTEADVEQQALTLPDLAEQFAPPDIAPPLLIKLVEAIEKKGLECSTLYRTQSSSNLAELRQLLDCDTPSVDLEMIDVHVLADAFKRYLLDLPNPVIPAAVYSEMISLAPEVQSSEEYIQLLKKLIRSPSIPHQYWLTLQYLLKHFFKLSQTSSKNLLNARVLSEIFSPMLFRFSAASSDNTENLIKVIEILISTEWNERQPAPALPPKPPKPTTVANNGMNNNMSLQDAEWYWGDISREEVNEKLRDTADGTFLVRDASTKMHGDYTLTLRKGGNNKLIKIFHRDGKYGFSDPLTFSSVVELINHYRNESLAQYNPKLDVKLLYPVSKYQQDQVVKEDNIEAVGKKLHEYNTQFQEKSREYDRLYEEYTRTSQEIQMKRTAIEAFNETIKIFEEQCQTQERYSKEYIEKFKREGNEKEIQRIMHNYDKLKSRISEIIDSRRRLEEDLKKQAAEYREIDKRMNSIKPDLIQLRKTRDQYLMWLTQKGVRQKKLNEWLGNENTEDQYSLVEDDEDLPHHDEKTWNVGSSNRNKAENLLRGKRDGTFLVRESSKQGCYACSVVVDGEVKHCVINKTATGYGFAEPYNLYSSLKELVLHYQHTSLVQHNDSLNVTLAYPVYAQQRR
From the text: (b) In Vitro PI3K Enzyme Assay
The assay used AlphaScreen technology (Gray et al., Analytical Biochemistry, 2003, 313: 234-245) to determine the ability of test compounds to inhibit phosphorylation by recombinant Type I PI3K enzymes of the lipid PI(4,5)P2.
DNA fragments encoding human PI3K catalytic and regulatory subunits were isolated from cDNA libraries using standard molecular biology and PCR cloning techniques. The selected DNA fragments were used to generate baculovirus expression vectors. In particular, full length DNA of each of the p110α, p110β and p110δ Type Ia human PI3K p110 isoforms (EMBL Accession Nos. HSU79143, S67334, Y10055 for p110 α, p110β and p110δ respectively) were sub-cloned into a pDEST10 vector (Invitrogen Limited, Fountain Drive, Paisley, UK). The vector is a Gateway-adapted version of Fastbac1 containing a 6-His epitope tag. A truncated form of Type Ib human PI3K p110γ isoform corresponding to amino acid residues 144-1102 (EMBL Accession No. X8336A) and the full length human p85α regulatory subunit (EMBL Accession No. HSP13KIN) were also sub-cloned into pFastBac1 vector containing a 6-His epitope tag. The Type Ia p110 constructs were co-expressed with the p85α regulatory subunit. […]
20 hours at room temperature in the dark. The resultant signals arising from laser light excitation at 680 nm were read using a Packard AlphaQuest instrument. […]

recombinant mTOR = target: T2, recombinant mTOR (Homo sapiens, UniProt P42345); test: In vitro mTOR kinase assay (AlphaScreen); format: biochemical; details: Test (a)
T2 construct: FLAG; made in house
T2 sequence (P42345 1362-2549): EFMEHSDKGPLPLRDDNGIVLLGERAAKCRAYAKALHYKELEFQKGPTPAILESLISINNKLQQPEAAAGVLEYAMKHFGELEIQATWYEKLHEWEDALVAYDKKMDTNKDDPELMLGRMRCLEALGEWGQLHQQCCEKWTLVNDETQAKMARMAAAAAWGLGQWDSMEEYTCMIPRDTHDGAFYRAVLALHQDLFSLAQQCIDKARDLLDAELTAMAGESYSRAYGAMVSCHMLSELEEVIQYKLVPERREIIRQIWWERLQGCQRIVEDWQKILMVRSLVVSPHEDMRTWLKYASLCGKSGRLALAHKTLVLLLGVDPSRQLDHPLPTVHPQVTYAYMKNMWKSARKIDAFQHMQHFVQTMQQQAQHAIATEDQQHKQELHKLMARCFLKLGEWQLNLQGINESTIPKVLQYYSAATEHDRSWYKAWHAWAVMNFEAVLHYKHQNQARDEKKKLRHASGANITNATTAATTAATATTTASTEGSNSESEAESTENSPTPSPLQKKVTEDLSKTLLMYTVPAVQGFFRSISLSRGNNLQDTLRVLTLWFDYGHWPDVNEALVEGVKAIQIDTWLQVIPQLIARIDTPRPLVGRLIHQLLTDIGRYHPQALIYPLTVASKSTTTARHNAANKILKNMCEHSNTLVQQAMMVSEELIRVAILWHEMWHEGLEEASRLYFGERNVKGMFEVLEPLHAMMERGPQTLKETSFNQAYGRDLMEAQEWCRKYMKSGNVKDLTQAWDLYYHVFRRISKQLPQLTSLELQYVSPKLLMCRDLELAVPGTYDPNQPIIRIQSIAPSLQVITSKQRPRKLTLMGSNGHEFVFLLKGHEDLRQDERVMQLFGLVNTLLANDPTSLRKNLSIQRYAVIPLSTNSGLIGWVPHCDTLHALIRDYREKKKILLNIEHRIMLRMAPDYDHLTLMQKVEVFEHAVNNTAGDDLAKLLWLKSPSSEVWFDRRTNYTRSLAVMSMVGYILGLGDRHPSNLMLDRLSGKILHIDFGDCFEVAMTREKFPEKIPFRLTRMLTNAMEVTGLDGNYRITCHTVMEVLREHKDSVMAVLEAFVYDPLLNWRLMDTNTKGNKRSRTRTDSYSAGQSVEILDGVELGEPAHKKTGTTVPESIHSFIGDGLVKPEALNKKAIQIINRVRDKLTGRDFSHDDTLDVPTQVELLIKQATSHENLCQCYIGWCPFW
Experimental: (a) In Vitro mTOR Kinase Assay
The assay used AlphaScreen technology (Gray et al., Analytical Biochemistry, 2003, 313: 234-245) to determine the ability of test compounds to inhibit phosphorylation by recombinant mTOR.
The HEK293 FLAG-tagged mTOR (1362-2549) stable cell line was routinely maintained at 37° C. with 5% CO2 up to a confluency of 70-90% in Dulbecco's modified Eagle's growth medium (DMEM; Invitrogen Limited, Paisley, UK Catalogue No. 41966-029) containing 10% heat-inactivated foetal calf serum (FCS; Sigma, Poole, Dorset, UK, Catalogue No. F0392), 1% L-glutamine (Gibco, Catalogue No. 25030-024) and 2 mg/ml Geneticin
(G418 sulfate; Invitrogen Limited, UK Catalogue No. 10131-027). […]
Each reaction was stopped by the addition of 10 μl of a mixture of EDTA (50 mM), bovine serum albumin (BSA; 0.5 mg/mL) and Tris-HCl pH7.4 buffer (50 mM) containing p70 S6 Kinase (T389) 1A5 Monoclonal Antibody (Cell Signalling Technology, Catalogue No. 9206B) and AlphaScreen Streptavidin donor and Protein A acceptor beads (200 ng; Perkin Elmer, Catalogue No. 6760002B and 6760137R respectively) were added and the assay plates were left for about 20 hours at room temperature in the dark. The resultant signals arising from laser light excitation at 680 nm were read using a Packard Envision instrument. […]
mTOR enzyme inhibition for a given test compound was expressed as an IC50 value.

[1] = system: phosphorylation of Serine 473 in Akt, MDA-MB-468 cells; test: In vitro phospho-Ser473 Akt assay; format: cell-based; details: Homo sapiens, MDA-MB-468, Test (c), mean of five occasions, read-out: IC50 versus Serine 473 in Akt, mean value
Experimental: (c) In Vitro Phospho-Ser473 Akt Assay
This assay determines the ability of test compounds to inhibit phosphorylation of Serine 473 in Akt as assessed using Acumen Explorer technology (Acumen Bioscience Limited), a plate reader that can be used to rapidly quantitate features of images generated by laser-scanning.
A MDA-MB-468 human breast adenocarcinoma cell line (LGC Promochem, Teddington, Middlesex, UK, Catalogue No. HTB-132) was routinely maintained at 37° C. with 5% CO2 up to a confluency of 70-90% in DMEM containing 10% heat-inactivated FCS and 1% L-glutamine.
For the assay, the cells were detached from the culture flask using ‘Accutase’ (Innovative Cell Technologies Inc., San Diego, Calif., USA; Catalogue No. AT104) using standard tissue culture methods and resuspended in media to give 1.7×10^5 cells per mL. Aliquots (90 μl) were seeded into each of the inner 60 wells of a black Packard 96 well plate (PerkinElmer, Boston, Mass., USA; Catalogue No. 6005182) to give a density of ˜15000 cells per well. […]
No. 10010015). […] An aliquot of PBS (50 μl) was added to each well and the plates were sealed with black plate sealers and the fluorescence signal was detected and analysed.
Fluorescence dose response data obtained with each compound were analysed and the degree of inhibition of Serine 473 in Akt was expressed as an IC50 value.

IC50 (p110α Type Ia human PI3K; mean of three occasions, read-out: IC50 versus p110α Type Ia human PI3K, mean value) [µM]	IC50 (p110α Type Ia human PI3K; single occasions, read-out: IC50 versus p110α Type Ia human PI3K)	IC50 (recombinant mTOR; mean of three occasions, read-out: IC50 versus mTOR kinase, mean value) [µM]	IC50 (recombinant mTOR; single occasions, read-out: IC50 versus mTOR kinase)	IC50 [1] [µM]	Structure (SMILES)
6.8	1.9 µM and 13 µM and 5.7 µM	5.4	3.9 µM and 4.1 µM and 8.2 µM		O=S(=O)(CCc1cccc(C(F)(F)F)c1)Cc1cc(N2CCOCC2)nc(-c2ccccn2)n1 [Example 65, 4-morpholin-4-yl-2-pyridin-2-yl-6-[2-[3-(trifluoromethyl)phenyl]ethylsulfonylmethyl] pyrimidine]
				8.84	O=S(=O)(Cc1cc(N2CCOCC2)nc(-c2ccccn2)n1)c1ccccc1 [Example 44, 4-(benzenesulfonylmethyl)-6-morpholin-4-yl-2-pyridin-2-yl-pyrimidine]
